“And” between values parts separate entries of the source, which are not always exact repeats. Equal values may be shown once. Where a name gives a salt, the structure may show the parent alone.
| SMILES | melting point |
| --- | --- |
| CCOCc1nc2c(N)nc3cc(OC4CCNCC4)ccc3c2n1CC(O)CO (centres unmarked) (as salt: hydrochloride) | 278 to 280 °C |
| CCCn1c(COCC)nc2c(N)nc3ccc(OCCNC(=O)N4CCOCC4)cc3c21 (as salt: hydrochloride) [Example 4, N-(2-{[4-Amino-2-(ethoxymethyl)-1-propyl-1H-imidazo[4,5-c]quinolin-8-yl]oxy}ethyl)morpholine-4-carboxamide] | 200 to 202 °C |
| CCCn1c(COCC)nc2c(N)nc3ccc(OCCNC(=O)C(C)C)cc3c21 (as salt: hydrochloride) [Example 5, N-(2-{[4-Amino-2-(ethoxymethyl)-1-propyl-1H-imidazo[4,5-c]quinolin-8-yl]oxy}ethyl)-2-methylpropanamide hydrochloride] | 240 to 242 °C |
| CCOCc1nc2c(N)nc3cc(OCCN)ccc3c2n1CC(O)CO (centres unmarked) (as salt: hydrochloride) [Example 373, 3-[4-Amino-7-(2-aminoethoxy)-2-(ethoxymethyl)-1H-imidazo[4,5-c]quinolin-1-yl]propane-1,2-diol dihydrochloride] | 221 to 223 °C |
| CCOCc1nc2c(N)nc3cc(OCCCN4CCCC4=O)ccc3c2n1CCCCN (as salt: hydrochloride) [Example 398, 1-(3-{[4-Amino-1-(4-aminobutyl)-2-(ethoxymethyl)-1H-imidazo[4,5-c]quinolin-7-yl]oxy}propyl)pyrrolidin-2-one dihydrochloride] | > 250 °C |
| CCc1nc2c(N)nc3cc(OS(C)(=O)=O)ccc3c2n1CCOc1ccccc1 (as salt: methanesulfonate) [Example 367, 4-Amino-2-ethyl-1-(2-phenoxyethyl)-1H-imidazo[4,5-c]quinolin-7-yl methanesulfonate] | 213 to 214.5 °C |
| CCCCc1nc2c(N)nc3ccc(OCCCCC(=O)N4CCOCC4)cc3c2n1C (as salt: trifluoroacetate) [Example 31, 2-Butyl-1-methyl-8-[(5-morpholin-4-yl-5-oxopentyl)oxy]-1H-imidazo[4,5-c]quinolin-4-amine trifluoroacetate] | 155.5 to 156.2 °C |
| CCCc1nc2c(N)nc3cc(OCC(=O)c4ccccc4)ccc3c2n1CC(C)C [Example 1, 2-(4-Amino-1-(2-methylpropyl)-2-propyl-1H-imidazo[4,5-c]quinolin-7-yloxy)-1-phenylethanone] | 178 to 180 °C |
| CCCn1c(COCC)nc2c(N)nc3ccc(OCCN)cc3c21 [Example 2, 8-(2-Aminoethoxy)-2-ethoxymethyl-1-propyl-1H-imidazo[4,5-c]quinolin-4-amine] | 157 to 159 °C |
| CCCn1c(COCC)nc2c(N)nc3ccc(OCCNS(C)(=O)=O)cc3c21 [Example 3, N-[2-(4-Amino-2-ethoxymethyl-1-propyl-1H-imidazo[4,5-c]quinolin-8-yloxy)ethyl]methanesulfonamide] | 178 to 179.5 °C and 182 to 184.5 °C |
| CCCn1c(COCC)nc2c(N)nc3ccc(OCCNC(=O)N4CCOCC4)cc3c21 [Example 4, N-(2-{[4-Amino-2-(ethoxymethyl)-1-propyl-1H-imidazo[4,5-c]quinolin-8-yl]oxy}ethyl)morpholine-4-carboxamide] | 203 to 208 °C |
| CCCn1c(COCC)nc2c(N)nc3ccc(OCCNC(=O)C4CCCO4)cc3c21 (centres unmarked) [Example 6, N-(2-{[4-Amino-2-(ethoxymethyl)-1-propyl-1H-imidazo[4,5-c]quinolin-8-yl]oxy}ethyl)tetrahydrofuran-2-carboxamide] | 202.5 to 204.5 °C |
| CCCc1nc2c(N)nc3cc(OCCCNC(=O)OC(C)(C)C)ccc3c2n1CC(C)C [Example 7, tert-Butyl 3-{[4-amino-1-(2-methylpropyl)-2-propyl-1H-imidazo[4,5-c]quinolin-7-yl]oxy}propylcarbamate] | 162.5 to 164 °C |
| CCCc1nc2c(N)nc3cc(OCCCN)ccc3c2n1CC(C)C [Example 8, 7-(3-Aminopropoxy)-1-(2-methylpropyl)-2-propyl-1H-imidazo[4,5-c]quinolin-4-amine] | 173 to 174 °C |
| Cc1nc2c(N)nc3cc(OCCNC(=O)OC(C)(C)C)ccc3c2n1CC(C)C [Example 9, tert-Butyl 2-{[4-amino-2-methyl-1-(2-methylpropyl)-1H-imidazo[4,5-c]quinolin-7-yl]oxy}ethylcarbamate] | 226.9 to 228.2 °C |
| CCCc1nc2c(N)nc3cc(OCCCNS(C)(=O)=O)ccc3c2n1CC(C)C [Example 11, N-{3-[4-Amino-1-(2-methylpropyl)-2-propyl-1H-imidazo[4,5-c]quinolin-7-yloxy]propyl}methanesulfonamide] | 166.5 to 168.5 °C |
| CCCc1nc2c(N)nc3cc(OCCCN4CCCS4(=O)=O)ccc3c2n1CC(C)C [Example 13, 7-[3-(1,1-Dioxidoisothiazolidin-2-yl)propoxy]-1-(2-methylpropyl)-2-propyl-1H-imidazo[4,5-c]quinolin-4-amine] | 142 to 144 °C |
| CCCc1nc2c(N)nc3cc(OCCCNS(=O)(=O)CCc4cccc5ccccc45)ccc3c2n1CC(C)C [Example 14, N-(3-{[4-Amino-1-(2-methylpropyl)-2-propyl-1H-imidazo[4,5-c]quinolin-7-yl]oxy}propyl)-2-(1-naphthyl)ethanesulfonamide] | 164 to 168 °C |

| SMILES | melting point |
| --- | --- |
| CCCc1nc2c(N)nc3cc(OCCCNC(=O)C(C)C)ccc3c2n1CC(C)C [Example 15, N-{3-[4-Amino-1-(2-methylpropyl)-2-propyl-1H-imidazo[4,5-c]quinolin-7-yloxy]propyl}-2-methylpropanamide] | 179 to 181 °C |
| CCCc1nc2c(N)nc3cc(OCCCNC(=O)c4cccnc4)ccc3c2n1CC(C)C [Example 16, N-{3-[4-Amino-1-(2-methylpropyl)-2-propyl-1H-imidazo[4,5-c]quinolin-7-yloxy]propyl}nicotinamide] | 172 to 174 °C |
| Cc1nc2c(N)nc3cc(OCCNC(=O)C(C)C)ccc3c2n1CC(C)C [Example 17, N-{2-[4-Amino-2-methyl-1-(2-methylpropyl)-1H-imidazo[4,5-c]quinolin-7-yloxy]ethyl}-2-methylpropanamide] | 205 to 206 °C |
| CCCc1nc2c(N)nc3cc(OCCN4CCCC4=O)ccc3c2n1CC(C)C [Example 18, 1-{2-[4-Amino-1-(2-methylpropyl)-2-propyl-1H-imidazo[4,5-c]quinolin-7-yloxy]ethyl}pyrrolidin-2-one] | 206 to 208 °C |
| Cc1nc2c(N)nc3cc(OCCNC(=O)N4CCOCC4)ccc3c2n1CC(C)C [Example 19, N-(2-{[4-Amino-2-methyl-1-(2-methylpropyl)-1H-imidazo[4,5-c]quinolin-7-yl]oxy}ethyl)morpholine-4-carboxamide] | 215 to 219 °C (dec.) |
| CCCc1nc2c(N)nc3cc(OCCCNC(=O)N4CCOCC4)ccc3c2n1CC(C)C [Example 20, N-(3-{[4-Amino-2-propyl-1-(2-methylpropyl)-1H-imidazo[4,5-c]quinolin-7-yl]oxy}propyl)morpholine-4-carboxamide] | 145 °C |
| CCCc1nc2c(N)nc3cc(OCCCNC(=O)NS(=O)(=O)c4ccc(F)cc4)ccc3c2n1CC(C)C [Example 21, N-{[(3-{[4-Amino-1-(2-methylpropyl)-2-propyl-1H-imidazo[4,5-c]quinolin-7-yl]oxy}propyl)amino]carbonyl}-4-fluorobenzenesulfonamide] | 194 to 198 °C |
| CCCc1nc2c(N)nc3cc(OCCC4CCN(C(=O)OC(C)(C)C)CC4)ccc3c2n1CC(C)C [Example 22, tert-Butyl 4-(2-{[4-amino-1-(2-methylpropyl)-2-propyl-1H-imidazo[4,5-c]quinolin-7-yl]oxy}ethyl)piperidine-1-carboxylate] | 196.4 to 199.6 °C |
| Cc1nc2c(N)nc3cc(OCCC4CCN(C(=O)C(C)C)CC4)ccc3c2n1CC(C)C [Example 26, 1-(4-{2-[4-Amino-2-methyl-1-(2-methylpropyl)-1H-imidazo[4,5-c]quinolin-7-yloxy]ethyl}piperidin-1-yl)-2-methylpropan-1-one] | 205.1 to 207.1 °C |
| Cc1nc2c(N)nc3cc(OCCC4CCN(C(=O)C5CCCC5)CC4)ccc3c2n1CC(C)C [Example 27, 7-{2-[1-(Cyclopentylcarbonyl)piperidin-4-yl]ethoxy}-2-methyl-1-(2-methylpropyl)-1H-imidazo[4,5-c]quinolin-4-amine] | 235.7 to 238.1 °C |
| Cc1nc2c(N)nc3cc(OCCC4CCN(C(=O)N5CCOCC5)CC4)ccc3c2n1CC(C)C [Example 28, 2-Methyl-1-(2-methylpropyl)-7-{2-[1-(morpholin-4-ylcarbonyl)piperidin-4-yl]ethoxy}-1H-imidazo[4,5-c]quinolin-4-amine] | 205 to 208 °C |
| CCc1nc2c(N)nc3cc(OCC(=O)N4CCOCC4)ccc3c2n1CC(C)C [Example 30, 2-Ethyl-1-(2-methylpropyl)-7-(2-morpholin-4-yl-2-oxoethoxy)-1H-imidazo[4,5-c]quinolin-4-amine] | 219 to 220 °C |
| CCCCc1nc2c(N)nc3ccc(OCC(=O)N4CCOCC4)cc3c2n1C [Example 32, 2-Butyl-1-methyl-8-(2-morpholin-4-yl-2-oxoethoxy)-1H-imidazo[4,5-c]quinolin-4-amine] | 256.8 to 257.2 °C |
| CCCCc1nc2c(N)nc3ccc(OCC(=O)N4CCCCC4)cc3c2n1C [Example 33, 2-Butyl-1-methyl-8-(2-oxo-2-piperidin-1-ylethoxy)-1H-imidazo[4,5-c]quinolin-4-amine] | 222.5 to 223.4 °C |
| CCCCc1nc2c(N)nc3ccc(OCC(=O)N(C)Cc4ccccc4)cc3c2n1C [Example 34, 2-[(4-Amino-2-butyl-1-methyl-1H-imidazo[4,5-c]quinolin-8-yl)oxy]-N-benzyl-N-methylacetamide] | 167.4 to 168.8 °C |
| CCCCc1nc2c(N)nc3ccc(OCC(=O)N(CC)CC)cc3c2n1C [Example 35, 2-[(4-Amino-2-butyl-1-methyl-1H-imidazo[4,5-c]quinolin-8-yl)oxy]-N,N-diethylacetamide] | 185.9 to 188.1 °C |
| CCCCc1nc2c(N)nc3ccc(OCC(=O)N(CCOC)CCOC)cc3c2n1C [Example 36, 2-[(4-Amino-2-butyl-1-methyl-1H-imidazo[4,5-c]quinolin-8-yl)oxy]-N,N-bis(2-methoxyethyl)acetamide] | 125 to 128 °C |
